Measured values taken from patent publication US20030129629A1, “Methods and compositions for the identification, assessment, prevention, and therapy of human cancers” (Millennium Pharmaceuticals, Inc., priority 2000, published 2003).
Where “and” joins values, the source holds several entries; their conditions need not be identical. Identical values can stand only once. Like-named read-outs stand apart in the source and are kept apart here.

Tested on: 60 cancer cell lines (NCI 60 cancer cell line series)
Test: NCI-DTP in vitro cancer screen, sulforhodamine B (SRB) growth inhibition, 48 hour exposure
Type: cell-based, human
Description: Cancer Cell Line Preparation. Sixty cancer cell lines were obtained from the National Cancer Institute Developmental Therapeutics Program (NCI-DTP). Procedures for growing cells and testing compounds have been described previously (Scudiero et al., Cancer Res. 1988, 48:4827-4833; Stinson et al., Anticancer Res.; Myers et al., Electrophoresis 1997, 18:647-653). Cells are plated on day 0 at a density individualized for each cell line so that they will generally be sub-confluent at the end of the assay period. On day 1, a compound is added in the format for a duplicate-well, 5-dose, ten-fold interval dose response study.
No-drug, no-cell and no-growth controls are included. On day 3 the cells are processed for staining with sulforhodamine B (SRB), which reflects the amount of cell mass present at the end of a 48 hour exposure to the test agent. From dose response curves based on the SRB data, various parameters can be determined. […] More precisely, the quantity used in the calculation to be described is the potency measure −log{GI50}.
Activity database (A). […] This subset of compounds was selected from the larger 23,000 compound database available from the DTP. The compounds were selected on the basis of their known mechanism of action and chemical structure. The average potency −log{GI50} was extracted from the comma-delimited text files available through the Web at http://www.nci.nih.gov/intra/lmp/jnwbio.html. Subsequently, these −log{GI50} values were inspected manually and classified as indicating either Low, Medium or High sensitivity to each compound.

## O=C(O)CCCc1ccc(N(CCCl)CCCl)cc1 [Chlorambucil]
  classification of cell line as Low(1), Medium(2), High(3) sensitivity to compound: 2 and 3 and 1
Breast BT-549 CL5013
  classification of cell line as Low(1), Medium(2), High(3) sensitivity to compound: 1
Breast HS-578T CL5006
  classification of cell line as Low(1), Medium(2), High(3) sensitivity to compound: 1
Breast MCF7(I) CL5001
  classification of cell line as Low(1), Medium(2), High(3) sensitivity to compound: 2
Breast MCF7/ADRr CL5002
  classification of cell line as Low(1), Medium(2), High(3) sensitivity to compound: 2
Breast MDA-MB-231 CL5005
  classification of cell line as Low(1), Medium(2), High(3) sensitivity to compound: 1
Breast MDA-MB-435 CL5011
  classification of cell line as Low(1), Medium(2), High(3) sensitivity to compound: 1
Breast MDA-N CL5012
  classification of cell line as Low(1), Medium(2), High(3) sensitivity to compound: 1
Breast T-47D CL5014
  classification of cell line as Low(1), Medium(2), High(3) sensitivity to compound: 2
Colon COLO-250 CL4010
  classification of cell line as Low(1), Medium(2), High(3) sensitivity to compound: 1
Colon HCC-2998 CL4002
  classification of cell line as Low(1), Medium(2), High(3) sensitivity to compound: 1
Colon HCT-15 CL4015
  classification of cell line as Low(1), Medium(2), High(3) sensitivity to compound: 2
Colon HCT-116 CL4003
  classification of cell line as Low(1), Medium(2), High(3) sensitivity to compound: 1
Colon HT29(I) CL4001
  classification of cell line as Low(1), Medium(2), High(3) sensitivity to compound: 1
Colon KM12 CL4017
  classification of cell line as Low(1), Medium(2), High(3) sensitivity to compound: 1
Colon SW-620 CL4009
  classification of cell line as Low(1), Medium(2), High(3) sensitivity to compound: 2
Leukemia CCRF-CEM(I) CL7003
  classification of cell line as Low(1), Medium(2), High(3) sensitivity to compound: 3
Leukemia HL-60(I) CL7008
  classification of cell line as Low(1), Medium(2), High(3) sensitivity to compound: 3
Leukemia K562(I) CL7005
  classification of cell line as Low(1), Medium(2), High(3) sensitivity to compound: 1
Leukemia MOLT-4 CL7006
  classification of cell line as Low(1), Medium(2), High(3) sensitivity to compound: 3
Leukemia RPMI-8226(I) CL7010
  classification of cell line as Low(1), Medium(2), High(3) sensitivity to compound: 2
Leukemia SR CL7019
  classification of cell line as Low(1), Medium(2), High(3) sensitivity to compound: 3
Melanoma LOX IMVI CL10001
  classification of cell line as Low(1), Medium(2), High(3) sensitivity to compound: 2
Melanoma M14 CL10014
  classification of cell line as Low(1), Medium(2), High(3) sensitivity to compound: 2
Melanoma MALME-3M CL10002
  classification of cell line as Low(1), Medium(2), High(3) sensitivity to compound: 2
Melanoma SK-MEL-2 CL10005
  classification of cell line as Low(1), Medium(2), High(3) sensitivity to compound: 1
Melanoma SK-MEL-5 CL10007
  classification of cell line as Low(1), Medium(2), High(3) sensitivity to compound: 2
Melanoma SK-MEL-28 CL10008
  classification of cell line as Low(1), Medium(2), High(3) sensitivity to compound: 1
Melanoma UACC-62 CL10020
  classification of cell line as Low(1), Medium(2), High(3) sensitivity to compound: 3
Melanoma UACC-257 CL10021
  classification of cell line as Low(1), Medium(2), High(3) sensitivity to compound: 2
NSCLC A549/ATCC CL1004
  classification of cell line as Low(1), Medium(2), High(3) sensitivity to compound: 2
NSCLC EKVX CL1008
  classification of cell line as Low(1), Medium(2), High(3) sensitivity to compound: 1
NSCLC HOP-62 CL1026
  classification of cell line as Low(1), Medium(2), High(3) sensitivity to compound: 2
NSCLC HOP-92 CL1029
  classification of cell line as Low(1), Medium(2), High(3) sensitivity to compound: 2
NSCLC NCI-H23(I) CL1001
  sensitivity classification Low(1)/Medium(2)/High(3): 2
NSCLC NCI-H226 CL1013
  classification of cell line as Low(1), Medium(2), High(3) sensitivity to compound: 2
NSCLC NCI-H332M CL1017
  sensitivity classification Low(1)/Medium(2)/High(3): 1
NSCLC NCI-H460 CL1021
  sensitivity classification Low(1)/Medium(2)/High(3): 3
NSCLC NCI-H522 CL1003
  sensitivity classification Low(1)/Medium(2)/High(3): 2
Ovarian IGROV1 CL6010
  sensitivity classification Low(1)/Medium(2)/High(3): 1
Ovarian OVCAR-3 CL6001
  sensitivity classification Low(1)/Medium(2)/High(3): 1
Ovarian OVCAR-4 CL6002
  sensitivity classification Low(1)/Medium(2)/High(3): 1
Ovarian OVCAR-5 CL6003
  sensitivity classification Low(1)/Medium(2)/High(3): 1
Ovarian OVCAR-8 CL6005
  sensitivity classification Low(1)/Medium(2)/High(3): 2
Ovarian SK-OV-3 CL6011
  sensitivity classification Low(1)/Medium(2)/High(3): 1
Prostate DU-145 CL11003
  sensitivity classification Low(1)/Medium(2)/High(3): 2
Prostate PC-3(I) CL11001
  sensitivity classification Low(1)/Medium(2)/High(3): 1
Renal 786-0 CL9018
  sensitivity classification Low(1)/Medium(2)/High(3): 2
Renal A498 CL9013
  sensitivity classification Low(1)/Medium(2)/High(3): 1
Renal ACHN CL9023
  sensitivity classification Low(1)/Medium(2)/High(3): 3
Renal CAKI-1 CL9015
  sensitivity classification Low(1)/Medium(2)/High(3): 3
Renal RXF-393 CL9016
  sensitivity classification Low(1)/Medium(2)/High(3): 2
Renal SN12C CL9008
  sensitivity classification Low(1)/Medium(2)/High(3): 2
Renal TK10 CL9024
  sensitivity classification Low(1)/Medium(2)/High(3): 1
Renal UO-31 CL9004
  sensitivity classification Low(1)/Medium(2)/High(3): 2
